Reference: article PMC9174720, “Evaluation of antioxidant and cytotoxic properties of phenolic N-acylhydrazones: structure–activity relationship” (Royal Society Open Science, 2022)
Like-named read-outs stand apart in the source and are kept apart here.

What was measured:
[1] = system: HCT-116; test: MTT cytotoxicity assay on HCT-116 cells; format: cell-based, human; conditions: for IC50: Homo sapiens, HCT-116 cell line, read-out: Growth inhibitory effects IC50; for selectivity index (SI): ratio of IC50 values of MRC-5 and HCT-116, values greater than 1 indicate selectivity toward cancer cell line
Description: (§1) In this in vitro study, we investigated the influence of PheNAHs on two model systems: human colorectal carcinoma HCT-116 and human healthy fibroblast cell line MRC-5. Both cell lines of low passages were purchased from the European collection of authenticated cell cultures (ECACC) and were cultivated in Dulbecco's Modified Eagle Medium (DMEM) (Sigma, D5796) cell culture medium supplemented with 10% foetal bovine serum (Sigma, F4135-500 ML) and 1% penicillin/streptomycin (Sigma, P4333-100 ML) in 75 cm^2 culture flasks. The cells were maintained according to the standardized procedure in the incubator with humidified atmosphere supplemented with 5% CO2 at a physiological temperature of 37°C, and after a few passages and a confluence of about 80%, the cells were used in all in vitro experiments (Laboratory for Bioengineering protocol CB-003).
(§2) The ability of synthesized compounds to inhibit the growth of two different cell lines was estimated by a standardized 3-(4,5-dimethylthiazol-2-yl)-2,5-diphenyltetrazolium bromide (MTT) assay (Laboratory for Bioengineering protocol CB-005). The approximative number of 10 000 cells per well (in 96-well microplates) were seeded and kept in the incubator for 24 h to enable cell adhesion. After the incubation period, the cells were treated with investigated compounds in the concentration range from 0,1 to 500 µM dissolved in DMEM. Cytotoxic effect was evaluated 24 and 72 h from treatment by following the number of survived cells, thus the cell viability. MTT assay is based on spectrophotometric measurement of reduction rate of 3-(4,5-dimethylthiazol-2-yl)-2,5-diphenyltetrazolium bromide (MTT, Acros Organics, 158990010) to purple formazan crystals subsequently dissolved in DMSO (Fisher Chemical, D/4121/PB15) on a microplate reader (Rayto 2100C) at 550 nm. The percentage of the survived (viable) cells was estimated by dividing the absorbance of the treatment with the absorbance of the control (non-treated) cells and multiplied by 100 [47]. As positive controls, Leucovorin and Irinotecan were selected as compounds used in colon cancer treatment.
(§3) Biological activity was the result of two individual experiments, performed in triplicate for each dose. Statistical analyses were determined using the one-way analysis of variance (ANOVA) test for multiple comparisons, SPSS (Chicago, IL) statistical software package (SPSS for Windows, v. 17, 2008). The IC50 values were calculated from the dose curves by a computer program (CalcuSyn). IC50 values represent the half-maximal inhibitory concentration of tested compounds to measure the influence in inhibition of cell growth for 50%. […] At the beginning of the process of selecting the anti-cancer drug candidate, it is necessary to make a rough preselection between the tested substances. In vitro analysis on cancer and healthy cell lines is quantified in different ways, selectivity also. The selectivity index (SI) of tested drugs usually refers to the simple ratio of IC50 values determined for cancer and healthy cells. Also, the SI can be used for the expression of many other examples, such as SI between antibacterial and antiviral effect, discrimination of the drugs effect between many cancer cell lines, etc. In our experimentation, the values greater than ‘1’ indicate selectivity of the tested substance toward cancer cell line.

[2] = system: MRC-5; test: MTT cytotoxicity assay on MRC-5 cells; format: cell-based; conditions: Homo sapiens, MRC5, MRC-5 cell line, read-out: Growth inhibitory effects IC50
Description: as §1, §2, §3

[3] = DPPH radical scavenging assay; format: biochemical; conditions: for IC50: DPPH 0.05 mM in methanol, incubated 20 and 60 min, absorbance at 517 nm, mean ± s.d. of three measurements, read-out: IC50 for inactivation of DPPH free radical; for stoichiometric factor (SF): SF=[DPPH]/(2×IC50), good antioxidant if SF ≥ 2
Description: The antioxidant screening of all PheNAHs was performed using the 2,2-diphenyl-1-picrylhydrazyl (DPPH) method. The solution of DPPH radical in methanol (0.05 mM, 1 ml) was mixed with the tested compound (20 µl of different concentrations in dimethyl sulfoxide (DMSO) and 980 µl of methanol). The reaction mixture was incubated in the dark at room temperature for 20 and 60 min after which the absorbance of the sample was measured spectrophotometrically at 517 nm. All measurements were performed in triplicate. Methanol was used as a control solution, whereas quercetin and nordihydroguaiaretic acid (NDGA) were used as reference compounds. […] IC50 is defined as the minimal concentration of tested compound required for reaching 50% of a maximum scavenging capacity. The results were presented as mean values ± standard deviation (s.d.) of three independent measurements. The stoichiometric factor (SF) was calculated for all compounds using the equation [45, 46]:1 SF=[DPPH]/(2×IC50)

| SMILES | IC50 ([1]; 24 h exposure) | IC50 ([1]; 72 h exposure) | IC50 ([2]; 24 h exposure) | IC50 ([2]; 72 h exposure) | IC50 [3] | stoichiometric factor (SF) [3] | selectivity index (SI) ([1]; after 24 h exposure) | selectivity index (SI) ([1]; after 72 h exposure) |
| --- | --- | --- | --- | --- | --- | --- | --- | --- |
| O=C(N/N=C/c1ccc(O)cc1O)c1ccc(O)cc1 [3g] | > 500 µM | 130 µM | > 500 µM | 440 µM | > 100 µM | – | – | – |
| COc1cc(C(=O)N/N=C/c2ccc(O)cc2O)ccc1O [4g] | 194 µM | > 500 µM | > 500 µM | 307 µM | > 100 µM | – | – | – |
| COc1cc(C(=O)N/N=C/c2cc(OC)c(O)c(OC)c2)ccc1O [4f] | > 500 µM | > 500 µM | > 500 µM | > 500 µM | 6.3 ± 0.3 µM | 2 | – | – |
| O=C(N/N=C/c1ccccc1)c1ccc(O)cc1 [3a] | > 500 µM | > 500 µM | > 500 µM | > 500 µM | > 100 µM | – | – | – |
| COc1cc(C(=O)N/N=C/c2ccccc2)ccc1O [4a] | > 500 µM | > 500 µM | > 500 µM | > 500 µM | > 100 µM | – | – | – |
| O=C(N/N=C/c1ccccc1)c1ccccc1O [2a] | > 500 µM | > 500 µM | > 500 µM | > 500 µM | > 100 µM | – | – | – |
| COc1cc(/C=N/NC(=O)c2ccccc2)cc(OC)c1O [1f] | > 500 µM | > 500 µM | > 500 µM | > 500 µM | 17.2 ± 1.1 µM | 0.7 | – | – |
| O=C(N/N=C/c1ccc(O)cc1O)c1cc(O)c(O)c(O)c1 [5g] | 99.9 µM | 77.3 µM | 76.4 µM | 78.6 µM | 0.9 ± 0.1 µM | 13.9 | 0.76 | 1.02 |
| COc1cc(C(=O)N/N=C/c2ccc(O)c(O)c2)ccc1O [4h] | > 500 µM | > 500 µM | > 500 µM | > 500 µM | 3.4 ± 0.1 µM | 3.7 | – | – |
| COc1cc(/C=N/NC(=O)c2ccccc2O)ccc1O [2e] | > 500 µM | > 500 µM | > 500 µM | > 500 µM | 20.1 ± 0.9 µM | 0.6 | – | – |
| O=C(N/N=C/c1ccc(O)cc1)c1ccc(O)cc1 [3c] | > 500 µM | > 500 µM | > 500 µM | > 500 µM | > 100 µM | – | – | – |
| O=C(N/N=C/c1ccccc1O)c1cc(O)c(O)c(O)c1 [5b] | 62.6 µM | 32.4 µM | 104 µM | 52.1 µM | 1.2 ± 0.1 µM | 10.4 | 1.67 | 1.61 |
| O=C(N/N=C/c1ccc(O)c(O)c1)c1ccccc1O [2h] | > 500 µM | 208 µM | > 500 µM | > 500 µM | 1.6 µM | 7.8 | – | – |
| COc1cc(/C=N/NC(=O)c2ccc(O)cc2)ccc1O [3e] | > 500 µM | > 500 µM | > 500 µM | > 500 µM | 28.4 ± 0.2 µM | 0.4 | – | – |
| O=C(N/N=C/c1ccc(O)cc1)c1cc(O)c(O)c(O)c1 [5c] | 71.8 µM | 38.5 µM | 92 µM | 31.9 µM | 2.9 ± 0.1 µM | 4.3 | 1.28 | 0.83 |
| COc1cc(/C=N/NC(=O)c2ccccc2O)cc(OC)c1O [2f] | > 500 µM | > 500 µM | > 500 µM | > 500 µM | 6.5 ± 0.4 µM | 1.9 | – | – |
| O=C(N/N=C/c1ccccc1O)c1ccc(O)cc1 [3b] | > 500 µM | 101 µM | > 500 µM | > 500 µM | > 100 µM | – | – | >4.94 |
| COc1cccc(/C=N/NC(=O)c2cc(O)c(O)c(O)c2)c1O [5d] | 89.9 µM | > 500 µM | 180 µM | 458 µM | 1 ± 0.1 µM | 12.5 | 2.00 | <0.92 |
| COc1cc(C(=O)N/N=C/c2cccc(OC)c2O)ccc1O [4d] | > 500 µM | 202 µM | > 500 µM | 128 µM | > 100 µM | – | – | – |
| O=C(N/N=C/c1ccccc1O)c1ccccc1 [1b] | 249 µM | 139 µM | > 500 µM | > 500 µM | > 100 µM | – | >2.01 | >3.59 |
| COc1cccc(/C=N/NC(=O)c2ccccc2O)c1O [2d] | 80.5 µM | 26.2 µM | 37.9 µM | 87.3 µM | > 100 µM | – | – | 3.3 |
| O=C(N/N=C/c1ccc(O)c(O)c1)c1cc(O)c(O)c(O)c1 [5h] | > 500 µM | 58.8 µM | > 500 µM | 50.6 µM | 0.7 ± 0.1 µM | 17.9 | – | 0.86 |
